Data: US20050004105A1, “Treatment for a attention-deficit hyperactivity disorder” (priority 2003, published 2005)

How the values were obtained:
5-HT1A receptors [1] = molecular target: T1, 5-HT1A receptors (Homo sapiens, UniProt P08908); conditions: proportion of maximal inhibition of forskolin-stimulated cAMP relative to 5-HT; Koek et al., 1998; cited from earlier work
T1 sequence (P08908 1-422): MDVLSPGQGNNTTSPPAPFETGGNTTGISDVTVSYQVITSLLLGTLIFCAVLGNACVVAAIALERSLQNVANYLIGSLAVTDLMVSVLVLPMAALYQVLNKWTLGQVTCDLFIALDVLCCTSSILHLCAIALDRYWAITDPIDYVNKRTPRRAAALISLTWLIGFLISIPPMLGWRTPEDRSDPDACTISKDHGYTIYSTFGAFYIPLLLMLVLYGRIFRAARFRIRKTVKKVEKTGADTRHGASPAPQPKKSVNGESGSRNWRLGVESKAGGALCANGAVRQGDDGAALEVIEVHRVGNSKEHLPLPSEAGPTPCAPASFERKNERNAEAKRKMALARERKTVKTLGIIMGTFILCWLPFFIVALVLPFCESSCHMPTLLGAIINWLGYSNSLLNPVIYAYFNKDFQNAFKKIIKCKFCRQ

5-HT1A receptors [2] = molecular target: T1, 5-HT1A receptors; test: 5-HT1A receptor affinity (Schipper et al., 1991); format: binding; conditions: based on Ki values of Schipper et al.
Cm mutant mice = Cm mutant mice (methylphenidate: both control and Cm mutants); Hess et al., 1996; cited from earlier work

| Structure (SMILES) | intrinsic activity at the 5-HT1A receptor (5-HT1A receptors [1]) | further results |
| --- | --- | --- |
| CCCN(CCC)C1Cc2c[nH]c3ccc(C(N)=O)c(c23)C1 (single isomer, unassigned; (-)) [LY228729, (−)-4(dipropylamino)-1,3,4,5-tetrahydrobenz-[c,d,]indole-6-carboxamide] | 0.88 |  |
| CC1(C)CC(=O)N(CCCCN2CCN(c3ncccn3)CC2)C(=O)C1 [gepirone] | 0.77 |  |
| COc1ccc2cccc(N3CCN(CCNC(=O)c4ccc(F)cc4)CC3)c2c1 [S14506, 1(2-[4-fluorobenzoylamino]ethyl)-4-(7-methoxynaphtyl)piperazine] | 0.95 |  |
| O=C1CC2(CCCC2)CC(=O)N1CCCCN1CCN(c2ncccn2)CC1 [buspirone] |  | ΔpKi for 5-HT1A and D2 receptors (5-HT1A receptors [2]): 0.44 |
| COC(=O)C(c1ccccc1)C1CCCCN1 (centres unmarked) [methylphenidate] |  | effect on hyperactivity / locomotor activity (Cm mutant mice): increases locomotor activity in a dose-dependent manner |
